The record followed here is patent US5532258A, “H2 -receptor antagonist thiazoles” (Fujisawa Pharmaceutical Co., Ltd., priority 1991, dated 1996).

Experiment [1] relates to Gastric secretion. The experiment is described as follows: Test C (Gastric secretion from lumen perfused stomach in anesthetized rats). As to conditions: 1 mg/kg intravenously, histamine (3 mg/kg/hr) i.v. stimulation. It is filed as in vivo, Male Sprague-Dawley rats. The protocol:
Test C (Gastric secretion from lumen perfused stomach in anesthetized rats):
Male Sprague-Dawley rats weighing about 250 g were used. Rats were deprived of food but allowed free access to water for 24 hours. The animals were anesthteized with 1.25 g/kg urethane intraperitoneally. The abdomen was opened and the gastric lumen was perfused with saline throughout the experiment. The perfusate was titrated continuously against 25 mM sodium hydroxide to maintain the perfusate solution at pH 7.0. Gastric secretion was stimulated by intravenous infusion with histamine (3 mg/kg/hr). After reaching plateau, test compound (1 mg/kg) was given intravenously at a volume of 2 ml/kg. Effect of drug was expressed as maximal inhibition of acid output calculated by the amount of sodium hydroxide required.

The subject of experiment [2] is Gastric secretion. The experiment can be described thus: Test A (Gastric secretion in Heidenhain pouch dogs). The experiment is classed as in vivo, Beagle dogs. As to conditions: 3.2 mg/kg orally, tetragastrin (10 μg/kg/hr) i.v. stimulation, 3 hours. As to the method: Test A (Gastric secretion in Heidenhain pouch dogs):
Beagle dogs, weighing about 8-13 kg, were used for the study on gastric secretion. The animals were surgically provided with a vagally denervated Heidenhain pouch. One month or more later, the dogs were fasted overnight. Gastric secretion was stimulated by an intravenous infusion of tetragastrin (10 μg/kg/hr). Gastric juice was collected at 15 minutes intervals. After the secretion plateau had been established, test compound (3.2 mg/kg) suspended in 0.1% methyl cellulose solution was administered orally. Gastric juice was collected at 15 minutes intervals over 3 hours period. Acid concentration was determined by titrating an aliquot against 0.1N sodium hydroxide using automatic titrator (Hiranuma RAT-11 Type). Total acid output was calculated by multiplying the volume of gastric juice by acid concentration, and percentage inhibition was calculated by comparing total acid output before adminstration of test compound with that after administration of test compound.

For a further experiment, the system named is stress ulcer. The experiment can be described thus: Test B (Inhibition of stress ulcer). It is filed as in vivo, male Sprague-Dawley rats. Particulars: rats; 32 mg/kg orally just before stress; restraint in water bath 22° C. for 7 hours; vs control group. The protocol:
Test B (Inhibition of stress ulcer):
Five male Sprague-Dawley rats, aged 7 weeks, were fasted but allowed free access to water for 24 hours. Animals were placed in a restraint cage and immersed to a level of the xiphoid in a water bath kept 22° C. for 7 hours. Each of the test compounds (32 mg/kg) suspended in 0.1% methylcellulose solution was administered orally just before the stress subjection. Animals were sacrificed and stomachs were removed. After fixing with 2% formalin, stomachs were opened along the greater curvature and area of ulcers was measured. Percentage inhibition was calculated by comparing the mean area of ulcers (mm^2) in the test group with that in the control group.

Consider `NC(=O)NCc1cccc(-c2csc(N=C(N)N)n2)c1` [Test Compound (a), 4-(3-Ureidomethylphenyl)-2-(diaminomethyleneamino)thiazole], for which the “Inhibition (%), maximal inhibition of acid output” value in the experiment on Gastric secretion [1] came to 99%.
For `CNC(N)=Nc1nc(-c2cccc(CNC(C)=O)c2)cs1` [Test Compound (b), 4-(3-Acetylaminomethylphenyl)-2-[[(amino)(methylamino)methylene]amino]thiazole], the “Inhibition (%) of total acid output” value in the experiment with Gastric secretion [2] was determined as 88.1%.
As for `CCNC(N)=Nc1nc(-c2cccc(CNC(C)=O)c2)cs1` [Test Compound (c), 4-(3-Acetylaminomethylphenyl)-2-[[(amino)(ethylamino)methylene]amino]thiazole], the “Inhibition (%) of area of ulcers” value in the experiment with stress ulcer was 88.1%.
